Values of other authors, collected in paper PMC4273976 (ACS chemical biology, 2014).

System: EphA4-dependent growth cone collapse
Details: 5 μM peptide, nasal retinal explants; cited from earlier work

Sequence: KYLPYWPVLSSL
- inhibition of ephrin-A5-induced growth cone collapse: blocked
